Literature values in US20260248829A1, “PHOSPHOLIPID COMPOSITIONS COMPRISING EPA AND/OR DHA FOR AMELIORATING NEURODEGENERATION AND AGE-RELATED NEURODEGENERATIVE DISORDERS” (Aker BioMarine Human Ingredients AS, priority 2022, published 2026).

Tested on: dopaminergic neurons in the nigro-striatal circuit
Settings: young mice

CC1=C(/C=C/C(C)=C/C=C/C(C)=C/C=C/C=C(C)/C=C/C=C(C)/C=C/C2=C(C)C(=O)[C@@H](O)CC2(C)C)C(C)(C)C[C@H](O)C1=O [astaxanthin]
protection of dopaminergic neurons: protects
